According to US10499642B2, “Isoxazoline-substituted benzamides and analogues as insecticides” (SYNGENTA PARTICIPATIONS AG, priority 2015, dated 2019):

Tests used:
Type in all cases: in vivo
Spodoptera littoralis = Spodoptera littoralis (Egyptian cotton leaf worm) cotton leaf disc test; details: foliar, 72 h, read-out: control (at least one of mortality, anti-feedant effect, and growth inhibition)
How it was run: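 Five first-instar larvae per disc were placed on dried, sprayed cotton leaf discs held on agar. Test solutions were aqueous, made from 10′000 ppm DMSO stocks. At day 3, control was counted when mortality, feeding deterrence or growth inhibition exceeded the untreated discs.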

Plutella xylostella = Plutella xylostella (diamond back moth) artificial diet test; details: 120 h, read-out: effect in at least one of the two categories (mortality or growth inhibition)
How it was run: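 At a 200 ppm rate, test solutions were applied to artificial diet and allowed to dry before second-instar larvae were added. Five days later, larval mortality and growth inhibition were rated against untreated samples.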

Diabrotica Balteata = test: Diabrotica balteata (corn root worm) maize sprout test; details: 96 h, read-out: effect in at least one of the two categories (mortality or growth inhibition)
How it was run: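 Scoring covered both mortality and growth inhibition relative to untreated controls, 4 days post-infestation. Test solutions at 200 ppm, diluted in water from 10′000 ppm DMSO stocks, were sprayed onto agar-held maize sprouts, which after drying received 6 to 10 L2 larvae each well.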

Thrips tabaci = Thrips tabaci (onion thrips) sunflower leaf disc test; details: foliar, 144 h
Description: Thrips tabaci (Onion Thrips):
(§1) Sunflower leaf discs were placed on agar in 24-well microtiter plates and sprayed with aqueous test solutions prepared from 10′000 ppm DMSO stock solutions. After drying the leaf discs were infested with a thrips population of mixed ages. The samples were assessed for mortality 6 days after infestation.

Tetranychus urticae = Tetranychus urticae (two-spotted spider mite) bean leaf disc test; details: foliar, 192 h
Description: Tetranychus urticae (Two-Spotted Spider Mite):
as §1, with “Bean” for “Sunflower”, “discs” for “discs were placed”, “were” for “and”, “mite” for “thrips”, “on mixed population (mobile stages) 8” for “6”

Myzus persicae = Myzus persicae (green peach aphid) sunflower leaf disc test; details: foliar, 144 h
Description: Myzus persicae (Green Peach Aphid):
Sunflower leaf discs were placed on agar in a 24-well microtiter plate and sprayed with test solutions at an application rate of 200 ppm. After drying, the leaf discs were infested with an aphid population of mixed ages. After an incubation period of 6 days after treatment, samples were checked for mortality. The following compounds gave at least 80% mortality of Myzus persicae: […]

Cc1cc(C2=NO[C@@](c3cc(Cl)cc(C(F)(F)F)c3)(C(F)(F)F)C2)ccc1C(=O)NC1CC(Cl)=NO1 (stereo partly drawn) [Compound A016, N-(3-chloro-4,5-dihydroisoxazol-5-yl)-4-[(5S)-5-[3-chloro-5-(trifluoromethyl)phenyl]-5-(trifluoromethyl)-4H-isoxazol-3-yl]-2-methyl-benzamide]
≥ 80%: percent control (mortality, anti-feedant effect or growth inhibition) at 200 ppm (Spodoptera littoralis) | percent effect (mortality or growth inhibition) at 200 ppm (Plutella xylostella) | percent effect (mortality or growth inhibition) at 200 ppm (Diabrotica Balteata) | mortality at 200 ppm (Thrips tabaci) | mortality at 200 ppm (Tetranychus urticae) | mortality at 200 ppm (Myzus persicae)

Cc1cc(C2=NO[C@@](c3cc(Cl)c(F)c(Cl)c3)(C(F)(F)F)C2)ccc1C(=O)NC1CC(OCC(F)F)=NO1 (stereo partly drawn) [Compound A071]
≥ 80%: percent control (mortality, anti-feedant effect or growth inhibition) at 200 ppm (Spodoptera littoralis) | percent effect (mortality or growth inhibition) at 200 ppm (Plutella xylostella) | percent effect (mortality or growth inhibition) at 200 ppm (Diabrotica Balteata) | mortality at 200 ppm (Thrips tabaci) | mortality at 200 ppm (Tetranychus urticae) | mortality at 200 ppm (Myzus persicae)

CCC1=NOC(NC(=O)c2ccc(C3=NO[C@@](c4cc(Cl)cc(Cl)c4)(C(F)(F)F)C3)cc2C)C1 (stereo partly drawn) [Compound A137]
≥ 80%: percent control (mortality, anti-feedant effect or growth inhibition) at 200 ppm (Spodoptera littoralis) | percent effect (mortality or growth inhibition) at 200 ppm (Plutella xylostella) | percent effect (mortality or growth inhibition) at 200 ppm (Diabrotica Balteata) | mortality at 200 ppm (Thrips tabaci) | mortality at 200 ppm (Tetranychus urticae) | mortality at 200 ppm (Myzus persicae)

CC1=NOC(NC(=O)c2ccc(C3=NO[C@@](c4cc(Cl)c(F)c(Cl)c4)(C(F)(F)F)C3)cc2Cl)C1 (stereo partly drawn) [Compound A038, 2-chloro-4-[(5S)-5-(3,5-dichloro-4-fluoro-phenyl)-5-(trifluoromethyl)-4H-isoxazol-3-yl]-N-(3-methyl-4,5-dihydroisoxazol-5-yl)benzamide]
≥ 80%: percent control (mortality, anti-feedant effect or growth inhibition) at 200 ppm (Spodoptera littoralis) | percent effect (mortality or growth inhibition) at 200 ppm (Plutella xylostella) | percent effect (mortality or growth inhibition) at 200 ppm (Diabrotica Balteata) | mortality at 200 ppm (Thrips tabaci) | mortality at 200 ppm (Tetranychus urticae) | mortality at 200 ppm (Myzus persicae)

Cc1cc(C2=NO[C@@](c3cc(Cl)c(F)c(Cl)c3)(C(F)(F)F)C2)ccc1C(=O)NC1CC(OC(C)C)=NO1 (stereo partly drawn) [Compound A077]
≥ 80%: percent control (mortality, anti-feedant effect or growth inhibition) at 200 ppm (Spodoptera littoralis) | percent effect (mortality or growth inhibition) at 200 ppm (Plutella xylostella) | percent effect (mortality or growth inhibition) at 200 ppm (Diabrotica Balteata) | mortality at 200 ppm (Thrips tabaci) | mortality at 200 ppm (Tetranychus urticae) | mortality at 200 ppm (Myzus persicae)

Cc1cc(C2=NO[C@@](c3cc(Cl)c(F)c(Cl)c3)(C(F)(F)F)C2)ccc1C(=O)NC1CC(OCC(F)(F)F)=NO1 (stereo partly drawn) [Compound A103]
≥ 80%: percent control (mortality, anti-feedant effect or growth inhibition) at 200 ppm (Spodoptera littoralis) | percent effect (mortality or growth inhibition) at 200 ppm (Plutella xylostella) | percent effect (mortality or growth inhibition) at 200 ppm (Diabrotica Balteata) | mortality at 200 ppm (Thrips tabaci) | mortality at 200 ppm (Tetranychus urticae) | mortality at 200 ppm (Myzus persicae)

O=CN(C(=O)c1ccc(C2=NO[C@@](c3cc(Cl)c(Cl)c(Cl)c3)(C(F)(F)F)C2)cc1Cl)C1CC(Cl)=NO1 (stereo partly drawn) [Compound A017, 2-chloro-N-(3-chloro-4,5-dihydroisoxazol-5-yl)-N-formyl-4-[(5S)-5-(3,4,5-trichlorophenyl)-5-(trifluoromethyl)-4H-isoxazol-3-yl]benzamide]
≥ 80%: percent control (mortality, anti-feedant effect or growth inhibition) at 200 ppm (Spodoptera littoralis) | percent effect (mortality or growth inhibition) at 200 ppm (Plutella xylostella) | percent effect (mortality or growth inhibition) at 200 ppm (Diabrotica Balteata) | mortality at 200 ppm (Thrips tabaci) | mortality at 200 ppm (Tetranychus urticae) | mortality at 200 ppm (Myzus persicae)

CC(=O)COC1=NOC(NC(=O)c2ccc(C3=NO[C@@](c4cc(Cl)c(Cl)c(Cl)c4)(C(F)(F)F)C3)cc2C)C1 (stereo partly drawn) [Compound A121, N-(3-acetonyloxy-4,5-dihydroisoxazol-5-yl)-2-methyl-4-[(5S)-5-(3,4,5-trichlorophenyl)-5-(trifluoromethyl)-4H-isoxazol-3-yl]benzamide]
≥ 80%: percent control (mortality, anti-feedant effect or growth inhibition) at 200 ppm (Spodoptera littoralis) | percent effect (mortality or growth inhibition) at 200 ppm (Plutella xylostella) | percent effect (mortality or growth inhibition) at 200 ppm (Diabrotica Balteata) | mortality at 200 ppm (Thrips tabaci) | mortality at 200 ppm (Tetranychus urticae) | mortality at 200 ppm (Myzus persicae)

CC1=NOC(NC(=O)c2ccc(C3=NO[C@@](c4cc(Cl)c(Cl)c(Cl)c4)(C(F)(F)F)C3)cc2Cl)C1 (stereo partly drawn) [Compound A025, 2-chloro-N-(3-methyl-4,5-dihydroisoxazol-5-yl)-4-[(5S)-5-(3,4,5-trichlorophenyl)-5-(trifluoromethyl)-4H-isoxazol-3-yl]benzamide]
≥ 80%: percent control (mortality, anti-feedant effect or growth inhibition) at 200 ppm (Spodoptera littoralis) | percent effect (mortality or growth inhibition) at 200 ppm (Plutella xylostella) | percent effect (mortality or growth inhibition) at 200 ppm (Diabrotica Balteata) | mortality at 200 ppm (Thrips tabaci) | mortality at 200 ppm (Tetranychus urticae) | mortality at 200 ppm (Myzus persicae)

COC1=NOC(NC(=O)c2ccc(C3=NO[C@@](c4cc(Cl)c(F)c(Cl)c4)(C(F)(F)F)C3)cc2Cl)C1 (stereo partly drawn) [Compound A045]
≥ 80%: percent control (mortality, anti-feedant effect or growth inhibition) at 200 ppm (Spodoptera littoralis) | percent effect (mortality or growth inhibition) at 200 ppm (Plutella xylostella) | percent effect (mortality or growth inhibition) at 200 ppm (Diabrotica Balteata) | mortality at 200 ppm (Thrips tabaci) | mortality at 200 ppm (Tetranychus urticae) | mortality at 200 ppm (Myzus persicae)

COC1=NOC(NC(=O)c2ccc(C3=NO[C@@](c4cc(Cl)cc(C(F)(F)F)c4)(C(F)(F)F)C3)cc2Cl)C1 (stereo partly drawn) [Compound A065]
≥ 80%: percent control (mortality, anti-feedant effect or growth inhibition) at 200 ppm (Spodoptera littoralis) | percent effect (mortality or growth inhibition) at 200 ppm (Plutella xylostella) | percent effect (mortality or growth inhibition) at 200 ppm (Diabrotica Balteata) | mortality at 200 ppm (Thrips tabaci) | mortality at 200 ppm (Tetranychus urticae) | mortality at 200 ppm (Myzus persicae)

COC1=NOC(NC(=O)c2ccc(C3=NO[C@@](c4cc(Cl)c(Cl)c(Cl)c4)(C(F)(F)F)C3)cc2Cl)C1 (stereo partly drawn) [Compound A043]
≥ 80%: percent control (mortality, anti-feedant effect or growth inhibition) at 200 ppm (Spodoptera littoralis) | percent effect (mortality or growth inhibition) at 200 ppm (Plutella xylostella) | percent effect (mortality or growth inhibition) at 200 ppm (Diabrotica Balteata) | mortality at 200 ppm (Thrips tabaci) | mortality at 200 ppm (Tetranychus urticae) | mortality at 200 ppm (Myzus persicae)

C=C(Cl)COC1=NOC(NC(=O)c2ccc(C3=NO[C@@](c4cc(Cl)c(F)c(Cl)c4)(C(F)(F)F)C3)cc2C)C1 (stereo partly drawn) [Compound A100, N-[3-(2-chloroallyloxy)-4,5-dihydroisoxazol-5-yl]-4-[(5S)-5-(3,5-dichloro-4-fluoro-phenyl)-5-(trifluoromethyl)-4H-isoxazol-3-yl]-2-methyl-benzamide]
≥ 80%: percent control (mortality, anti-feedant effect or growth inhibition) at 200 ppm (Spodoptera littoralis) | percent effect (mortality or growth inhibition) at 200 ppm (Plutella xylostella) | percent effect (mortality or growth inhibition) at 200 ppm (Diabrotica Balteata) | mortality at 200 ppm (Thrips tabaci) | mortality at 200 ppm (Tetranychus urticae) | mortality at 200 ppm (Myzus persicae)

Cc1cc(C2=NO[C@@](c3cc(Cl)c(F)c(Cl)c3)(C(F)(F)F)C2)ccc1C(=O)NC1CC(C2CC2)=NO1 (stereo partly drawn) [Compound A032, N-(3-cyclopropyl-4,5-dihydroisoxazol-5-yl)-4-[(5S)-5-(3,5-dichloro-4-fluoro-phenyl)-5-(trifluoromethyl)-4H-isoxazol-3-yl]-2-methyl-benzamide]
≥ 80%: percent control (mortality, anti-feedant effect or growth inhibition) at 200 ppm (Spodoptera littoralis) | percent effect (mortality or growth inhibition) at 200 ppm (Plutella xylostella) | percent effect (mortality or growth inhibition) at 200 ppm (Diabrotica Balteata) | mortality at 200 ppm (Thrips tabaci) | mortality at 200 ppm (Tetranychus urticae) | mortality at 200 ppm (Myzus persicae)

COC1=NOC(NC(=O)c2ccc(C3=NO[C@@](c4cc(Cl)c(F)c(Cl)c4)(C(F)(F)F)C3)cc2C)C1 (stereo partly drawn) [Compound A030, 4-[(5S)-5-(3,5-dichloro-4-fluoro-phenyl)-5-(trifluoromethyl)-4H-isoxazol-3-yl]-N-(3-methoxy-4,5-dihydroisoxazol-5-yl)-2-methyl-benzamide]
≥ 80%: percent control (mortality, anti-feedant effect or growth inhibition) at 200 ppm (Spodoptera littoralis) | percent effect (mortality or growth inhibition) at 200 ppm (Plutella xylostella) | percent effect (mortality or growth inhibition) at 200 ppm (Diabrotica Balteata) | mortality at 200 ppm (Thrips tabaci) | mortality at 200 ppm (Tetranychus urticae) | mortality at 200 ppm (Myzus persicae)
